Measurements: patent US20020198135A1, “Compositions for release of radiosensitizers, and methods of making and using the same” (priority 2000, published 2002)

Tests used:
[1] = system: human cancer cell line JHU 012; assay: JHU 012 human cancer cell line tumor in the anterior floor of the mouth of nude mice, intratumoral injection; format: in vivo, immunocompromised (nude) mice; details: intratumoral injection ten days after cell injection, same radiation treatment (as appropriate); measured at approximately twenty days after injection
Procedure: In another in vivo experiment, 1×10^7 cells from the human cancer cell line JHU 012 were injected into the anterior floor of the mouth of immunocompromised (nude) mice. Ten days following injection, animals were anesthetized, tumors measured, intumoral injections of the same compositions identified above were completed followed by the same radiation treatment (as appropriate). At approximately twenty days after injection, animals sacrificed and tumors measured. The following approximate tumor sizes (mm^3) were observed: no treatment, 750; radiation alone, 300; empty microspheres, 500; 47% IUdR microspheres (1.175 mg IUdR in injection volume of 50 ul), 425; empty rods, 250; 33% IUdR rods, 350; and direct intrumoral injection of IUdR (0.065 mg to 0.12 mg in injection volume of 50 ul), 100.

[2] = system: U251 xenograft; assay: U251 xenograft model, IUdR polymer paste with continuous ULDR and fractionated HDR; format: in vivo, mice; details: IUdR via 16.7% P(trans-CHDM/HOP) paste, ULDR 0.03 Gy/hr for 72 hr, FIG. 25
Procedure: To test the effect of protracted exposure sensitization, a 137-Cs source was mounted a fixed distance above the cages of animals bearing xenografts for whole body continuous ULDR (as defined below). […] For purposes of this experiment, ULDR=0.03 Gy/hr for 72 hr started 24 hours after xenograft transplantation, and HDR=2 Gy twice a day for 4 days, started immediately after ULDR, which is 4 days after implantation.

Structure (SMILES): O=c1[nH]c(=O)n([C@H]2C[C@H](O)[C@@H](CO)O2)cc1I [IUdR, 5-iododeoxyuridine]
- approximate tumor size [1]: ~100 mm^3
- xenograft growth delay, combination of IUdR and ULDR compared with ULDR plus HDR [2]: more potent than the combination of IUdR and ULDR
- xenograft growth, combination of IUdR, ULDR and HDR ([2]; HDR 2 Gy twice a day for 4 days): tumor regression
